Results taken from BindingDB's records for doi:10.3109/14756366.2010.510471 (Suven Life Sciences, 2011).

Legend:
[1] = target: 5-hydroxytryptamine receptor 6 (Homo sapiens, UniProt P50406); assay: Radioligand Binding Assay; details: pH 7.4; 37 °C
Protocol: Briefly, receptor source and radioligand used were human recombinant expressed in HEK-293 cells and [3H] LSD (60–80 Ci/mmol), respectively. The final ligand concentration was 1.5 nM and non-specific determinant was methiothepin mesylate (0.1 μM). The reference compound and positive control was methiothepin mesylate. Reactions were carried out in 50 mM TRISHCl (pH 7.4) containing 10 mM MgCl2, 0.5 mM EDTA for 60 min at 37 °C. The reaction was terminated by rapid vacuum filtration onto glass fibre filters.

[2] = target: Cytochrome P450 3A4 (Homo sapiens, UniProt P08684); assay: Isoform-Selective Assay
Cytochrome P450 3A4, sequence (P08684 whole entry, canonical isoform): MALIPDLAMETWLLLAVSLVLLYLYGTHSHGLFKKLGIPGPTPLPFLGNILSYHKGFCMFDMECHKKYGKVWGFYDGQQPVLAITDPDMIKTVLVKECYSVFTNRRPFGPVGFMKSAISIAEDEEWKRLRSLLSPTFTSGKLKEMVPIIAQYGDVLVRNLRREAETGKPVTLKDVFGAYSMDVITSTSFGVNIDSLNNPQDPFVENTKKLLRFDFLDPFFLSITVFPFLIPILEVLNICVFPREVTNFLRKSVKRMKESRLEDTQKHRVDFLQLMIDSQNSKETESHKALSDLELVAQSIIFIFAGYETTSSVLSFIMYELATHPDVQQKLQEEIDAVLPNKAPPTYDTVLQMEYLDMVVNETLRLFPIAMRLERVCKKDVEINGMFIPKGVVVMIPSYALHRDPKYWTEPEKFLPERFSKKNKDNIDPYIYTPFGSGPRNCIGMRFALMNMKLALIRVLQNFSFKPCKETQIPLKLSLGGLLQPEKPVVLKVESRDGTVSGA
Protocol: (§1) The cytochrome P450 inhibitory potential was determined using isoform-selective assays and heterologously expressed human CYP2D6 and CYP3A4.

[3] = target: Cytochrome P450 2D6 (Homo sapiens, UniProt P10635); assay: Isoform-Selective Assay
Cytochrome P450 2D6, sequence (P10635 whole entry, canonical isoform): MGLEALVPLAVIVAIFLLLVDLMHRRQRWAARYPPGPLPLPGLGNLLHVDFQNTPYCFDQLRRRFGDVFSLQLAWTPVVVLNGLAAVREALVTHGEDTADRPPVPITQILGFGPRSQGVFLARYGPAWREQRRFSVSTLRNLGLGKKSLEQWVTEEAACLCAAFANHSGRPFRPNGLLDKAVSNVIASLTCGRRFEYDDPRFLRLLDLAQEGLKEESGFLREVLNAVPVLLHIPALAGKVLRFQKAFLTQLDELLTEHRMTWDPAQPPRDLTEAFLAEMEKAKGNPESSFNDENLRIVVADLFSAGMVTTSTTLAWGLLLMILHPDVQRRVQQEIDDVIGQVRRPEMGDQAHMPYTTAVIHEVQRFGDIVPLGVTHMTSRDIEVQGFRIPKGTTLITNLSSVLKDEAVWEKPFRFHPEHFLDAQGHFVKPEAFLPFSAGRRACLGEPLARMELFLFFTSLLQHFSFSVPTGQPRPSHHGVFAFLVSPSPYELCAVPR
Protocol: as §1

5-hydroxytryptamine receptor 6, sequence (P50406 whole entry): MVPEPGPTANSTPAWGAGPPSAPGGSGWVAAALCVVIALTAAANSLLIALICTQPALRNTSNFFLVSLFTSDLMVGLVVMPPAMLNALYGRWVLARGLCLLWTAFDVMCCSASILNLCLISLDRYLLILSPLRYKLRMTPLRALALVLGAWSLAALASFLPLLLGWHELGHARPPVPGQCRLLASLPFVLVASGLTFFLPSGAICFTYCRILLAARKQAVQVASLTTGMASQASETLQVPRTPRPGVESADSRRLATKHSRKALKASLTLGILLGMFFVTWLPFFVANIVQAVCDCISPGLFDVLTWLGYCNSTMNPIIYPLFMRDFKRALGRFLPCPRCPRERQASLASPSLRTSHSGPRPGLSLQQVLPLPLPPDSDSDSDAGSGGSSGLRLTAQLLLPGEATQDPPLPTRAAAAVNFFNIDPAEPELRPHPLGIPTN

Row | Structure (SMILES) | Ki [1] | IC50 [2] | IC50 [3]
1 | COc1ccc2c(c1)c(OCCN(C)C)c1n2S(=O)(=O)c2ccccc2-1 [2-Methoxy-10-(2-N,N-Dimethylaminoethoxy)-5-Thia-4b-azaindeno[2,1-a]indene-5,5-Dioxide (8d)] | 0.127 µM |  | 
2 | CN(C)CCOc1c2n(c3ccccc13)S(=O)(=O)c1ccccc1-2 [10-(2-N,N-Dimethylaminoethoxy)-5-Thia-4-b-azaindeno[2,1-a]indene-5,5-Dioxide (8a)] |  | > 45 µM | 7.65 µM
3 | CN(C)CCOc1c2n(c3ccc(Cl)cc13)S(=O)(=O)c1ccccc1-2 [2-Chloro-10-(2-N,N-Dimethylaminoethoxy)-5-Thia-4-b-azaindeno[2,1-a]indene-5,5-Dioxide (8c)] | 0.464 µM |  | 
4 | CN(C)CCOc1c2n(c3cc(Cl)ccc13)S(=O)(=O)c1ccccc1-2 [3-Chloro-10-(2-N,N-Dimethylaminoethoxy)-5-Thia-4-b-azaindeno (8b)] |  | 37.1 µM | 5.06 µM
5 | CN(C)CCOc1c2n(c3cccc(F)c13)S(=O)(=O)c1ccccc1-2 [1-Fluoro-10-(2-N,N-Dimethylaminoethoxy)-5-Thia-4-b-azaindeno [2,1-a]indene-5,5-Dioxide (8o)] | > 0.5 µM |  | 
